Source: article PMC9936145, “Discovery of a cytochrome P450 enzyme catalyzing the formation of spirooxindole alkaloid scaffold” (Frontiers in Plant Science, 2023)

Tested on: 3eCIS (MsCYP72056)
Conditions: 250 µM NADPH; HEPES pH 7.5; 0-300 µM hirsuteine; CPR co-expressed

C=C[C@H]1CN2CCc3c([nH]c4ccccc34)[C@H]2C[C@@H]1/C(=C\OC)C(=O)OC [hirsuteine]
Km: 68.3 µM
